Results from paper PMC9923772 (ACS chemical neuroscience, 2020).
Structures can show the parent of a compound that is named as a salt. Where two headings read alike, the source gives them in different places.

How the values were obtained:
[1] = molecular target: T1, human MOR (Homo sapiens, UniProt P35372); test: biochemical; conditions: for Emax: read-out: Efficacy (% Stimulation) MOR, Table 5; for Emax / Efficacy (% Stimulation) MOR: relative to DAMGO at 10 μM
[2] = molecular target: T2, human KOR (Homo sapiens, UniProt P41145); test: [35S]-GTPγS binding assay, CHO-KOR membranes; format: biochemical; conditions: for Efficacy (% Stimulation) KOR / Efficacy KOR, percent maximal stimulation: relative to U69,593 at 10 μM; for Efficacy (% Stimulation) KOR / Efficacy KOR, percent maximal stimulation / Potency, EC50 KOR: DNS = does not stimulate; for Efficacy KOR, percent maximal stimulation: Table 3; for Potency, EC50 KOR: [35S]GTPγS stimulation
[3] = molecular target: T3, human DOR (Homo sapiens, UniProt P41143); test: biochemical; conditions: for Efficacy (% Stimulation) DOR / Efficacy DOR, percent maximal stimulation: relative to DPDPE at 10 μM; for Efficacy (% Stimulation) DOR / Potency EC50 DOR / Efficacy DOR, percent maximal stimulation: DNS = does not stimulate; for Potency EC50 DOR: [35S]GTPγS stimulation; for Emax: read-out: Efficacy DOR, percent maximal stimulation; for Efficacy DOR, percent maximal stimulation: Table 3
[4] = molecular target: T1, human MOR; test: biochemical; format: binding
[5] = molecular target: T3, human DOR; test: biochemical; format: binding
[6] = molecular target: T2, human KOR; format: binding

| SMILES | Emax [1] | Efficacy (% Stimulation) KOR ([2]; Table 5) | Efficacy (% Stimulation) DOR ([3]; Table 5) | Ki [4] | EC50 [1] | Efficacy KOR, percent maximal stimulation [2] | Emax [3] | Ki [6] | other results |
| --- | --- | --- | --- | --- | --- | --- | --- | --- | --- |
| Cc1cc(O)cc(C)c1C[C@H](N)C(=O)NCC(=O)N(C)CCN1CCc2ccccc2C1.O=C(O)C(F)(F)F [O, (S)-1-((2-((2-(3,4-Dihydroisoquinolin-2(1H)-yl)ethyl)(methyl)amino)-2-oxoethyl)amino)-3-(4-hydroxy-2,6-dimethylphenyl)-1-oxopropan-2-aminium Trifluoroacetate] | 53 ± 17% | DNS | DNS | – | – | – | – | – | – |
| Cc1cc(O)cc(C)c1C[C@H](N)C(=O)NCCOCC(=O)N1CCc2ccccc2C1.O=C(O)C(F)(F)F [K, (S)-1-((2-(2-(3,4-Dihydroisoquinolin-2(1H)-yl)-2-oxoethoxy)-ethyl)amino)-3-(4-hydroxy-2,6-dimethylphenyl)-1-oxopropan-2-aminium Trifluoroacetate] | – | DNS | DNS | – | – | – | – | – | – |
| Cc1cc(O)cc(C)c1C[C@H](N)C(=O)N1CCN(CCN2CCc3ccccc3C2)CC1.O=C(O)C(F)(F)F [M, (S)-1-(4-(2-(3,4-Dihydroisoquinolin-2(1H)-yl)ethyl)piperazin-1-yl)-3-(4-hydroxy-2,6-dimethylphenyl)-1-oxopropan-2-aminium Trifluoroacetate] | 70 ± 16% | DNS | DNS | 3.59 ± 0.4 nM | 56 ± 17 nM | – | – | – | Ki [5]: 16.6 ± 4.9 nM; Potency EC50 DOR ([3]; Table 5): DNS |
| Cc1cc(O)cc(C)c1C[C@H](N)C(=O)NCc1cc(CN2CCCCC2)ccc1OCC1CC1.O=C(O)C(F)(F)F [D, (S)-1-((2-(Cyclopropylmethoxy)-5-(piperidin-1-ylmethyl)benzyl)amino)-3-(4-hydroxy-2,6-dimethylphenyl)-1-oxopropan-2-aminium Trifluoroacetate] | – | – | – | – | – | DNS | 17.7 ± 4.4% | – | – |
| CCCOc1ccc(CN2CCCCC2)cc1CNC(=O)[C@@H](N)Cc1c(C)cc(O)cc1C.O=C(O)C(F)(F)F [C, (S)-3-(4-Hydroxy-2,6-dimethylphenyl)-1-oxo-1-((5-(piperidin-1-ylmethyl)-2-propoxybenzyl)amino)propan-2-aminium Trifluoroacetate] | – | – | – | – | – | DNS | 39.9 ± 6.5% | – | – |
| Cc1cc(O)cc(C)c1C[C@H](N)C(=O)NCc1cc(CN2CCc3ccccc3C2)ccc1OCC1CC1.O=C(O)C(F)(F)F [H, (S)-1-((2-(Cyclopropylmethoxy)-5-((3,4-dihydroisoquinolin-2(1H)-yl)methyl)benzyl)amino)-3-(4-hydroxy-2,6-dimethylphenyl)-1-oxopropan-2-aminium Trifluoroacetate] | – | – | – | 0.05 ± 0.01 nM | 1.6 ± 0.5 nM | DNS | – | 23.5 ± 3.6 nM | Ki [5]: 3.6 ± 0.9 nM; Potency, EC50 KOR ([2]; Table 2): DNS; Potency EC50 DOR ([3]; Table 2): DNS; Efficacy DOR, percent maximal stimulation [3]: DNS |
| CCCOc1ccc(CN2CCc3ccccc3C2)cc1CNC(=O)[C@@H](N)Cc1c(C)cc(O)cc1C.O=C(O)C(F)(F)F [G, (S)-1-((5-((3,4-Dihydroisoquinolin-2(1H)-yl)methyl)-2-propoxybenzyl)amino)-3-(4-hydroxy-2,6-dimethylphenyl)-1-oxopropan-2-aminium Trifluoroacetate] | – | – | – | 0.22 ± 0.04 nM | 2.6 ± 1.3 nM | DNS | – | – | Ki [5]: 1.4 ± 0.3 nM; Potency EC50 DOR ([3]; Table 2): DNS; Efficacy DOR, percent maximal stimulation [3]: DNS |
| Cc1cc(O)cc(C)c1C[C@H](N)C(=O)NCCOCCN1CCc2ccccc2C1.O=C(O)C(F)(F)F [J, (S)-1-((2-(2-(3,4-Dihydroisoquinolin-2(1H)-yl)ethoxy)ethyl)amino)-3-(4-hydroxy-2,6-dimethylphenyl)-1-oxopropan-2-aminium Trifluoroacetate] | 90.7% | 22.0±3.8% | 27.4±8.2% | – | – | – | – | – | Efficacy (% Stimulation) MOR ([1]; Table 5): 90.7±3.6% |
| Cc1cc(O)cc(C)c1C[C@H](N)C(=O)NCc1cccc(CN2CCCCC2)c1.O=C(O)C(F)(F)F [A, (S)-3-(4-Hydroxy-2,6-dimethylphenyl)-1-oxo-1-((3-(piperidin-1-ylmethyl)benzyl)amino)propan-2-aminium Trifluoroacetate] | – | – | – | 9.3 ± 1.3 nM | > 740 nM | DNS | – | – | Efficacy DOR, percent maximal stimulation [3]: DNS |
| Cc1cc(O)cc(C)c1C[C@H](N)C(=O)NCCCCCN1CCc2ccccc2C1.O=C(O)C(F)(F)F [I, (S)-1-((5-(3,4-Dihydroisoquinolin-2(1H)-yl)pentyl)amino)-3-(4-hydroxy-2,6-dimethylphenyl)-1-oxopropan-2-aminium Trifluoroacetate] | 80.8 ± 4.5% | DNS | DNS | 1.5 ± 0.3 nM | 15.4 ± 1.3 nM | – | – | 44.2 ± 5.6 nM | Potency, EC50 KOR ([2]; Table 5): DNS |
| Cc1cc(O)cc(C)c1C[C@H](N)C(=O)NCC(=O)NCCN1CCc2ccccc2C1.O=C(O)C(F)(F)F [P, (S)-1-((2-((2-(3,4-Dihydroisoquinolin-2(1H)-yl)ethyl)amino)-2-oxoethyl)amino)-3-(4-hydroxy-2,6-dimethylphenyl)-1-oxopropan-2-aminium Trifluoroacetate] | 86.6 ± 3.3% | DNS | 36.5±1.2% | – | – | – | – | – | – |
| Cc1cc(O)cc(C)c1C[C@H](N)C(=O)NCc1cccc(CN2CCc3ccccc3C2)c1.O=C(O)C(F)(F)F [E, (S)-1-((3-((3,4-Dihydroisoquinolin-2(1H)-yl)methyl)benzyl)amino)-3-(4-hydroxy-2,6-dimethylphenyl)-1-oxopropan-2-aminium Trifluoroacetate] | 126 ± 20% | DNS | 57±6% | 0.23 ± 0.02 nM | 6.1 ± 3.1 nM | DNS | 57 ± 6% | 46.3 ± 9.7 nM | Potency, EC50 KOR ([2]; Table 2): DNS; Potency, EC50 KOR ([2]; Table 5): DNS |
| Cc1cc(O)cc(C)c1C[C@H](N)C(=O)NCCN(C)CCN1CCc2ccccc2C1.O=C(O)C(F)(F)F [N, (S)-1-((2-((2-(3,4-Dihydroisoquinolin-2(1H)-yl)ethyl)(methyl)amino)ethyl)amino)-3-(4-hydroxy-2,6-dimethylphenyl)-1-oxopro-pan-2-aminium Trifluoroacetate] | – | 43.0±2.5% | – | – | – | – | – | – | Ki ([4]; read-out: Binding Affinity, Ki MOR, Table 4, simple core compounds, mean ± SEM): 1.7 ± 0.39 nM; Ki ([6]; read-out: Binding Affinity, Ki KOR, Table 4, simple core compounds, mean ± SEM): 8.5 ± 1.1 nM; Ki ([5]; read-out: Binding Affinity, Ki DOR, Table 4, simple core compounds, mean ± SEM): 77 ± 45 nM; Efficacy (% Stimulation) MOR ([1]; Table 5): 80.0±9.5%; EC50 ([1]; read-out: Potency, EC50 MOR, Table 5, [35S]GTPγS stimulation): 24 ± 10 nM |
| Cc1cc(O)cc(C)c1C[C@H](N)C(=O)N1CCC(CCN2CCc3ccccc3C2)CC1.O=C(O)C(F)(F)F [L, (S)-1-(4-(2-(3,4-Dihydroisoquinolin-2(1H)-yl)ethyl)piperidin-1-yl)-3-(4-hydroxy-2,6-dimethylphenyl)-1-oxopropan-2-aminium Trifluoroacetate] | 73 ± 12% | DNS | DNS | 1.64 ± 0.62 nM | 68 ± 19 nM | – | – | 21 ± 5.9 nM | Potency, EC50 KOR ([2]; Table 5): DNS |
| COc1ccc(CN2CCCCC2)cc1CNC(=O)[C@@H](N)Cc1c(C)cc(O)cc1C.O=C(O)C(F)(F)F [B, (S)-3-(4-Hydroxy-2,6-dimethylphenyl)-1-((2-methoxy-5-(piperidin-1-ylmethyl)benzyl)amino)-1-oxopropan-2-aminium Trifluoroacetate] | – | – | – | – | – | DNS | 37.2 ± 6.2% | 23.5 ± 7.3 nM | Potency, EC50 KOR ([2]; Table 2): DNS |
| COc1ccc(CN2CCc3ccccc3C2)cc1CNC(=O)[C@@H](N)Cc1c(C)cc(O)cc1C [F, (S)-1-((5-((3,4-Dihydroisoquinolin-2(1H)-yl)methyl)-2-methoxybenzyl)amino)-3-(4-hydroxy-2,6-dimethylphenyl)-1-oxopropan-2-aminium Trifluoroacetate] | – | – | – | 0.16 ± 0.05 nM | 2.9 ± 0.5 nM | – | 29.8 ± 3.5% | 28.4 ± 3.1 nM | Ki [5]: 3 ± 0.8 nM; EC50 [2]: > 1000 nM; Emax ([2]; read-out: Efficacy KOR, percent maximal stimulation): > 15%; EC50 [3]: 5 ± 0.9 nM |
